Counter-ions that a name gives are not always drawn. Like-named read-outs stand apart in the source and are kept apart here.
Columns and labels:
Format in all cases: cell-based
[1] = tested on: Streptococcus mutans culture (ATCC 25175); test: Quantitative Biofilm Inhibition Test; conditions: for activity at 1 % w/w: Streptococcus mutans, ATCC25175, 20 h, read-out: OD Ratio
Procedure: Compounds of the dental compositions of the invention, and comparative compounds, were evaluated for biofilm inhibition activity. Composite dental restorative (available under the trade designation “FILTEK SUPREME” from 3M ESPE Dental Products, St. Paul, Minn.) was placed in a 15 millimeter by 1 millimeter stainless steel die. […] While the die containing the composite restorative was under compression, the composite was irradiated for two minutes using a Model ACE light source (available from SCHOTT North America, Inc., Auburn, N.Y.). The discs of cured composite restorative were then further cured using a Model UniXS light box (available from Heraeus Kulzer, Inc., Armonk, N.Y.) for 1.5 minutes.
The samples were incubated at 37° C. for approximately twenty hours, after which time the cured discs were removed from the broth and were gently rinsed with water. Each disc was placed in a separate test tube containing five milliliters of 1M aqueous sodium hydroxide solution, and each test tube was then sonicated for two minutes using a model SH1012-40-8 ultrasonic generator (manufactured by Branson Ultrasonics Corp., Danbury, Conn.) for two minutes to dislodge biofilm on the disc. The optical absorbance (optical density) of each aqueous sodium hydroxide solution was then measured at 550 nm using a Model ULTROSPEC III UV-visible spectrophotometer (manufactured by Pharmacia AB, Uppsala, Sweden). For each compound of the dental composition, five discs were separately incubated in broth and were evaluated separately to provide five optical density measurements. The average of the five optical density measurements was then calculated. […] The average optical density of the control or comparative samples was determined as described above. […] The ratio was considered to be proportional to the average amount of biofilm on the five cured discs, i.e., relatively low average optical density ratio was considered to be indicative of inhibition of biofilm formation. The ratio for the control was 100%.
(§1) The Quantitative Biofilm Inhibition Test was carried out using five compounds of the dental composition and eleven comparative compounds, each at a concentration of 1 weight percent. […] In addition, the Qualitative Biofilm Inhibition Test was carried out for each Example and Comparative Example, in which each disc was visually examined before it was placed in the tube containing the aqueous sodium hydroxide solution.

[2] = tested on: Streptococcus mutans culture (ATCC 25175); test: Qualitative Biofilm Inhibition Test; parameters: key: +: refers to a visual assessment that a compound inhibited biofilm formation; −: refers to a visual assessment that either a compound did not inhibit biofilm formation, or that bacteria grew in the culture broth; conditions: 1 weight percent compound; visible biofilm on disc after incubation and rinse
Procedure: as §1, with “During the procedure for the Quantitative Biofilm Inhibition Test, each cured disc was visually examined after it was removed from the broth (and rinsed with water) and before it was placed in a test tube containing five milliliters of 1M aqueous sodium hydroxide solution. The presence or absence of visible biofilm on a disc was noted. The” for “The”

Streptococcus mutans = test: Bacterial Kill Rate Test
Procedure: Compounds of the dental compositions of the invention were evaluated for extent of bacterial kill in culture. Overnight cultures of Streptococcus mutans in brain heart infusion broth (10^6 CFU/mL) was mixed with a 0.1 weight percent, 0.5 weight percent, or 1.0 weight percent aqueous solution of each compound of the dental composition. After a period of 2, 5, or 10 minutes, 1.0 mL of the mixture was transferred via pipette into a first tube containing 9.0 mL of Letheen broth to provide a 10^−1 dilution. The contents of the tube were mixed using a vortex mixer. A 1.0 mL aliquot of this sample was transferred via pipette into a second tube containing 9.0 mL of Letheen broth to provide a 10^−2 dilution. A 0.1 mL aliquot of each dilution was plated and spread in duplicate on sheep blood agar in Petri dishes, using a “hockey stick” applicator, to provide 10^−2 and 10^−3 dilutions, respectively, on each plate. The plates were incubated at 37° C. for a period of 48 to 72 hours, and then the colony forming units were counted. The CFU counts were compared and the log reduction in the counts were calculated. In Table 3, the bacteria count reduction (log reduction) is the difference between the log of the initial bacteria count and the log of the bacteria count after 2, 5, and 10 minutes.

[3] = 1 weight percent compound, broth with 1.0 weight percent sucrose, approx. twenty hours at 37° C., average OD at 550 nm as percentage of control (100%)

With O=C(CO)[C@@H](O)[C@@H](O)[C@H](O)CO [D-Tagatose] the activity at 1 % w/w [1, 3] was 145% and the “Visual Assessment” value [2] was “−”.
With C[C@H](O)[C@@H](O)[C@@H](O)[C@H](O)C=O [Fucose] the activity at 1 % w/w [1, 3] was 121% and the “Visual Assessment” value [2] was “−”.
With N[C@H]1C(O)O[C@H](CO)[C@H](O)[C@@H]1O (stereo partly drawn) [Galactosamine HCl, D-galactosamine] the activity at 1 % w/w [1, 3] was 0%, the “Visual Assessment” value [2] was “+” and the “Bacteria Count Reduction (log reduction)” value (Streptococcus mutans; 0.1 wt % compound, 2 min.) was 1.13 log reduction. For the same molecule, the “Bacteria Count Reduction (log reduction)” value (Streptococcus mutans; 0.1 wt % compound, 5 min.) was 1.00 log reduction, the “Bacteria Count Reduction (log reduction)” value (Streptococcus mutans; 0.1 wt % compound, 10 min.) was 0.96 log reduction and the “Bacteria Count Reduction (log reduction)” value (Streptococcus mutans; 0.5 wt % compound, 2 min.) was 0.89 log reduction. The “Bacteria Count Reduction (log reduction)” value (Streptococcus mutans; 0.5 wt % compound, 5 min.) was 1.08 log reduction and the “Bacteria Count Reduction (log reduction)” value (Streptococcus mutans; 0.5 wt % compound, 10 min.) was 1.31 log reduction.
With O=C[C@H](O)[C@@H](O)[C@@H](O)[C@H](O)CO [Galactose] the activity at 1 % w/w [1, 3] was 87% and the “Visual Assessment” value [2] was “−”.
In the case of OC[C@H]1O[C@@H](O[C@H]2[C@H](O)[C@@H](O)C(O)O[C@@H]2CO)[C@H](O)[C@@H](O)[C@H]1O (stereo partly shown) [Lactose], the activity at 1 % w/w [1] is reported as 82% and the “Visual Assessment” value [2] is reported as “−”.
OC[C@H]1O[C@@H](O[C@@H]2[C@@H](O)[C@H](O[C@@H]3[C@@H](O)[C@H](O[C@H]4[C@H](O)[C@@H](CO)OC(O)[C@@H]4O)O[C@H](CO)[C@H]3O)O[C@H](CO)[C@H]2O)[C@H](O)[C@@H](O)[C@@H]1O (stereo partly shown) [Laminaritetraose] was tested, and the “OD Ratio” value [1, 3] was 97% and the “Visual Assessment” value [2] was “−”.
For CC(=O)N[C@H]1C(O)O[C@H](CO)[C@H](O)[C@@H]1O (stereo partly shown) [N-Acetylgalactosamine], the activity at 1 % w/w [1, 3] was 138% and the “Visual Assessment” value [2] was “−”.
For CC(=O)N[C@H]1C(O)O[C@H](CO)[C@@H](O)[C@@H]1O (stereo partly shown) [N-Acetylglucosamine, reference compound], the activity at 1 % w/w [1, 3] was 83%, the “Visual Assessment” value [2] was “−” and the “Bacteria Count Reduction (log reduction)” value (Streptococcus mutans; 0.1 wt % compound, 2 min.) was 1.09 log reduction. For the same molecule, the “Bacteria Count Reduction (log reduction)” value (Streptococcus mutans; 0.1 wt % compound, 5 min.) was 1.02 log reduction, the “Bacteria Count Reduction (log reduction)” value (Streptococcus mutans; 0.1 wt % compound, 10 min.) was 1.04 log reduction and the “Bacteria Count Reduction (log reduction)” value (Streptococcus mutans; 0.5 wt % compound, 2 min.) was 1.12 log reduction. The “Bacteria Count Reduction (log reduction)” value (Streptococcus mutans; 0.5 wt % compound, 5 min.) was 1.16 log reduction, the “Bacteria Count Reduction (log reduction)” value (Streptococcus mutans; 0.5 wt % compound, 10 min.) was 0.99 log reduction and the “Bacteria Count Reduction (log reduction)” value (Streptococcus mutans; 1.0 wt % compound, 2 min.) was 1.05 log reduction. For the same molecule, the “Bacteria Count Reduction (log reduction)” value (Streptococcus mutans; 1.0 wt % compound, 5 min.) was 1.12 log reduction and the “Bacteria Count Reduction (log reduction)” value (Streptococcus mutans; 1.0 wt % compound, 10 min.) was 1.06 log reduction.
In the case of CC(=O)N[C@@H]1C(O)O[C@H](CO)[C@@H](O)[C@@H]1O (stereo partly shown) [N-Acetylmannosamine, reference compound], the activity at 1 % w/w [1, 3] is reported as 51%, the “Visual Assessment” value [2] is reported as “−” and the “Bacteria Count Reduction (log reduction)” value (Streptococcus mutans; 0.5 wt % compound, 2 min.) is reported as 0.93 log reduction. The “Bacteria Count Reduction (log reduction)” value (Streptococcus mutans; 0.5 wt % compound, 5 min.) was 1.54 log reduction and the “Bacteria Count Reduction (log reduction)” value (Streptococcus mutans; 0.5 wt % compound, 10 min.) was 1.61 log reduction.
For OC[C@@H](O)[C@H](O)[C@@H](O)CO [Xylitol], the activity at 1 % w/w [1, 3] was 123% and the “Visual Assessment” value [2] was “−”.
For OC[C@H]1O[C@@H](OC[C@H]2O[C@@H](O)[C@H](O)[C@@H](O)[C@@H]2O)[C@H](O)[C@@H](O)[C@@H]1O [beta-Gentiobiose], the “OD Ratio” value [1, 3] was 124% and the “Visual Assessment” value [2] was “−”.

Reference: US8329674B2, “Film forming dental compositions and related methods” (3M Innovative Properties Company, priority 2007, dated 2012)
